Values quoted from earlier work, collected in patent publication US20220218792A1, “COMPOSITIONS TO PROMOTE THE HEALING OF SKIN ULCERS AND WOUNDS” (priority 2014, published 2022).

Legend:
[1] = not given; remark: listed apart in the source
[2] = for gastric tolerability: oral
[3] = aqueous media at physiological pH
[4] = tested on: polymorphonuclear leukocytes
[5] = tested on: strains of organisms from the susceptible genera
[6] = tested on: Staphylococcus, Streptococcus, Neisseria, Escherichia, Proteus (indole-negative), Serratia, Salmonella, Shigella, Pseudomonas, Haemophilus, Vibrio; details: aerobic genera
[7] = tested on: indole-positive Proteus spp., Klebsiella and Enterobacter spp.
[8] = tested on: Peptostreptococcus (including Peptoniphilus, Finegoldia and Anaerococcus) and Fusobacterium; details: anaerobic genera
[9] = tested on: wounds infected with Escherichia coli; details: topically applied, rats
[10] = tested on: chronic wounds and ulcers; details: topically applied; deep partial-thickness burns, chronic leg ulcers and leprosy ulcers

C[C@@H]1O[C@@H]1P(=O)(O)O [Fosfomycin calcium monohydrate]
pH of 0.4% solution (0.4% solution): 8.1-9.6 | solubility in water [1]: sparingly soluble | gastric tolerability [2]: less irritating to the stomach

C[C@@H]1O[C@@H]1P(=O)(O)O [Fosfomycin disodium]
pH of 5% solution: 9.0-10.5 | solubility in water [1]: highly soluble | gastric tolerability [2]: irritant to the stomach

C[C@@H]1O[C@@H]1P(=O)(O)O.NC(CO)(CO)CO [Fosfomycin trometamol]
pH of 5% solution: 3.5-5.5 | solubility in water [1]: highly soluble | gastric tolerability [2]: well tolerated

C[C@@H]1O[C@@H]1P(=O)(O)O [fosfomycin, [(2R,3S)-3-methyloxiran-2-yl]phosphonic acid]
stability in aqueous media [3]: unstable | toxicity to mammalian cells and organs ([2]; intravenous doses of up to 0.5 g/kg/day in human patients): remarkably non-toxic | eosinophilia ([2]; patients): 0.2% | transient rashes (allergy) ([2]; patients): 0.3 % of cases | transiently raised liver enzymes ([2]; patients): 0.3 % of cases | concentration in polymorphonuclear leukocytes relative to extracellular fluid [4]: twice | strains showing synergistic effect ([5]; early studies, various antibiotic combinations): 70-100 % of tested strains | synergy rates ([5]; subsequent more extensive studies): 36-74% | bactericidal activity [6]: active | bactericidal activity [7]: less active | bactericidal activity [8]: active

GM-CSF: monomeric glycoprotein of 127 amino-acid residues, colony-stimulating factor (SEQ ID NO: 2)
bacterial counts [9]: reduced bacterial counts | wound closure [9]: accelerated wound closure | healing of wounds and ulcers [10]: beneficial
